{
  "source": "PubChem BioAssay (NCI)",
  "experiment_in_all_cases": "DTP human tumour cell line panel, 48 h",
  "key": {"786-0 renal": {"system": "786-0 renal"}, "A498 renal": {"system": "A498 renal"}, "A549 NSCLC": {"system": "A549 NSCLC"}, "ACHN renal": {"system": "ACHN renal"}, "BT-549 breast": {"system": "BT-549 breast"}, "CAKI-1 renal": {"system": "CAKI-1 renal"}, "CCRF-CEM leukemia": {"system": "CCRF-CEM leukemia"}, "COLO 205 colon": {"system": "COLO 205 colon"}, "DU-145 prostate": {"system": "DU-145 prostate"}, "EKVX NSCLC": {"system": "EKVX NSCLC"}, "HCC-2998 colon": {"system": "HCC-2998 colon"}, "HCT-116 colon": {"system": "HCT-116 colon"}, "HCT-15 colon": {"system": "HCT-15 colon"}, "HL-60(TB) leukemia": {"system": "HL-60(TB) leukemia"}, "HOP-62 NSCLC": {"system": "HOP-62 NSCLC"}, "HOP-92 NSCLC": {"system": "HOP-92 NSCLC"}, "HS 578T breast": {"system": "HS 578T breast"}, "HT29 colon": {"system": "HT29 colon"}, "IGROV1 ovarian": {"system": "IGROV1 ovarian"}, "K-562 leukemia": {"system": "K-562 leukemia"}, "KM12 colon": {"system": "KM12 colon"}, "LOX IMVI melanoma": {"system": "LOX IMVI melanoma"}, "M14 melanoma": {"system": "M14 melanoma"}, "MALME-3M melanoma": {"system": "MALME-3M melanoma"}, "MCF7 breast": {"system": "MCF7 breast"}, "MDA-MB-231 breast": {"system": "MDA-MB-231 breast"}, "MDA-MB-435": {"system": "MDA-MB-435"}, "MOLT-4 leukemia": {"system": "MOLT-4 leukemia"}, "NCI-H226 lung": {"system": "NCI-H226 lung"}},
  "note": "“And” between values parts separate entries of the source, which are not always exact repeats. Equal values may be shown once.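 Assay format: 96-well plates, 48-hour exposure. GI50: concentration for 50% inhibition of growth. Definition used: TGI = concentration required for complete inhibition of growth.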",
  "data": [
    {"compound": "O=C(NNc1nc2cc(F)cc(F)c2n2cccc12)c1cccnn1", "values": [
      {"measurement": "GI50", "setting": "786-0 renal", "value": "0.208 µM and 0.261 µM"},
      {"measurement": "TGI", "setting": "786-0 renal", "value": "2.46 µM and 6.24 µM"},
      {"measurement": "GI50", "setting": "A498 renal", "value": "0.868 µM and 0.428 µM"},
      {"measurement": "TGI", "setting": "A498 renal", "value": "4.85 µM and 3.08 µM"},
      {"measurement": "GI50", "setting": "A549 NSCLC", "value": "0.378 µM and 0.215 µM"},
      {"measurement": "TGI", "setting": "A549 NSCLC", "value": "5.72 µM and 3.74 µM"},
      {"measurement": "GI50", "setting": "ACHN renal", "value": "0.164 µM and 0.165 µM"},
      {"measurement": "TGI", "setting": "ACHN renal", "value": "4.14 µM and 3.17 µM"},
      {"measurement": "GI50", "setting": "BT-549 breast", "value": "0.52 µM and 0.291 µM"},
      {"measurement": "TGI", "setting": "BT-549 breast", "value": "2.26 µM and 9.43 µM"},
      {"measurement": "GI50", "setting": "CAKI-1 renal", "value": "0.291 µM and 0.183 µM"},
      {"measurement": "TGI", "setting": "CAKI-1 renal", "value": "4.96 µM and 5.28 µM"},
      {"measurement": "GI50", "setting": "CCRF-CEM leukemia", "value": "0.163 µM and 0.0432 µM"},
      {"measurement": "GI50", "setting": "COLO 205 colon", "value": 0.533, "unit": "µM"},
      {"measurement": "TGI", "setting": "COLO 205 colon", "value": 5.06, "unit": "µM"},
      {"measurement": "GI50", "setting": "DU-145 prostate", "value": "0.507 µM and 0.371 µM"},
      {"measurement": "TGI", "setting": "DU-145 prostate", "value": "6.23 µM and 4.08 µM"},
      {"measurement": "GI50", "setting": "EKVX NSCLC", "value": "0.35 µM and 0.164 µM"},
      {"measurement": "TGI", "setting": "EKVX NSCLC", "value": "13.3 µM and 3.26 µM"},
      {"measurement": "GI50", "setting": "HCC-2998 colon", "value": "0.612 µM and 0.436 µM"},
      {"measurement": "TGI", "setting": "HCC-2998 colon", "value": "11.3 µM and 18 µM"},
      {"measurement": "GI50", "setting": "HCT-116 colon", "value": 0.151, "unit": "µM"},
      {"measurement": "TGI", "setting": "HCT-116 colon", "value": 0.916, "unit": "µM"},
      {"measurement": "GI50", "setting": "HCT-15 colon", "value": "0.124 µM and 0.0483 µM"},
      {"measurement": "TGI", "setting": "HCT-15 colon", "value": "13.5 µM and > 100 µM"},
      {"measurement": "GI50", "setting": "HL-60(TB) leukemia", "value": "0.765 µM and 0.259 µM"},
      {"measurement": "GI50", "setting": "HOP-62 NSCLC", "value": "0.206 µM and 0.0677 µM"},
      {"measurement": "TGI", "setting": "HOP-62 NSCLC", "value": "4.77 µM and 5.25 µM"},
      {"measurement": "GI50", "setting": "HOP-92 NSCLC", "value": "0.778 µM and 0.44 µM"},
      {"measurement": "TGI", "setting": "HOP-92 NSCLC", "value": "8.79 µM and 5.34 µM"},
      {"measurement": "GI50", "setting": "HS 578T breast", "value": "3.79 µM and 1.13 µM"},
      {"measurement": "TGI", "setting": "HS 578T breast", "value": "30 µM and 36.8 µM"},
      {"measurement": "GI50", "setting": "HT29 colon", "value": "0.725 µM and 0.475 µM"},
      {"measurement": "TGI", "setting": "HT29 colon", "value": "30 µM and 27.2 µM"},
      {"measurement": "GI50", "setting": "IGROV1 ovarian", "value": "0.21 µM and 0.211 µM"},
      {"measurement": "TGI", "setting": "IGROV1 ovarian", "value": "4.68 µM and 3.64 µM"},
      {"measurement": "GI50", "setting": "K-562 leukemia", "value": "0.817 µM and 0.263 µM"},
      {"measurement": "GI50", "setting": "KM12 colon", "value": "0.507 µM and 0.185 µM"},
      {"measurement": "TGI", "setting": "KM12 colon", "value": "30 µM and > 100 µM"},
      {"measurement": "GI50", "setting": "LOX IMVI melanoma", "value": 0.295, "unit": "µM"},
      {"measurement": "TGI", "setting": "LOX IMVI melanoma", "value": 3.57, "unit": "µM"},
      {"measurement": "GI50", "setting": "M14 melanoma", "value": "0.164 µM and 0.179 µM"},
      {"measurement": "GI50", "setting": "MALME-3M melanoma", "value": "0.784 µM and 1.02 µM"},
      {"measurement": "TGI", "setting": "MALME-3M melanoma", "value": "6.18 µM and 5.97 µM"},
      {"measurement": "GI50", "setting": "MCF7 breast", "value": "0.453 µM and 0.26 µM"},
      {"measurement": "TGI", "setting": "MCF7 breast", "value": "5.67 µM and 2.56 µM"},
      {"measurement": "GI50", "setting": "MDA-MB-231 breast", "value": "0.82 µM and 0.784 µM"},
      {"measurement": "TGI", "setting": "MDA-MB-231 breast", "value": "10.3 µM and > 100 µM"},
      {"measurement": "GI50", "setting": "MDA-MB-435", "value": "1.27 µM and 0.599 µM"},
      {"measurement": "TGI", "setting": "MDA-MB-435", "value": "30 µM and 15.8 µM"},
      {"measurement": "GI50", "setting": "MOLT-4 leukemia", "value": "0.186 µM and 0.167 µM"},
      {"measurement": "GI50", "setting": "NCI-H226 lung", "value": "0.341 µM and 0.799 µM"},
      {"measurement": "TGI", "setting": "NCI-H226 lung", "value": "5.64 µM and 7.42 µM"}
    ]}
  ]
}
